Laboratory results reported in patent publication US4621077A, “Pharmacologically active biphosphonates, process for the preparation thereof and pharmaceutical compositions therefrom” (Istituto Gentili S.p.A., priority 1982, dated 1986).
Read-outs that look alike come from different tables or passages of the source.

Key:
[1] = test system: skull cells; assay: cells; type: cell-based, Wistar rats; details: for activity at 2.5 µM / activity at 25 µM / activity at 250 µM: Rattus norvegicus, read-out: Effect on the cellular number ± S.E.M.
Description: (§1) Cellular culture: the cells are cultured according to the method described by Fast et al, (Biochem. J. 172, 97-107 (1978)). By way of summary, the skulls removed from Wistar rats, one day old, are digested with collagenase. The cells set free are placed on a plate with concentration of 200,000 cells per cc of medium in disks "clusters" suitable for culture, the plates having 24 wells of 1.6 cm in diameter containing 0.5 cc of medium. The cells are cultivated in the essential minimum medium containing 10% of foetal calf serum in an atmosphere of 5% CO2 at 37° up to the eighth day. The bisphosphonates are added on the first day up to the end of the experiment. The medium is changed on the first, fourth and seventh day.
The cells are counted with a Coulter counter after they have been set free from the disks by digestion with a mixture of collagenase and trypsin.

[2] = test system: skull cells (lactate production); assay: cells; type: cell-based, Wistar rats; details: for activity at 2.5 µM / activity at 25 µM / activity at 250 µM: Rattus norvegicus, 16 h, read-out: Effect on the production of lactate ± S.E.M.
Description: as §1
On the seventh day, the medium is changed and the cells are incubated for 16 hours. The lactate produced during this period is measured in an extract in HClO4 of the medium using lactatodehydrogenase.

[3] = in vivo; details: mouse, Swiss mice, read-out: DL50 (the source's name)
Description: For this study Swiss mice, both male and female, have been utilized: during the experiment, the animals are fed according to the method with Altromin in the form of tablets. For the oral and intraperitoneal administration, there are used 5% gum arabic solutions while saline solutions of pH 4 are used for the intravenous injections.
The preliminary values of DL50 are calculated according to a graphic method.

[4] = for product Ca++ × Pi in solution after incubation: 37° C., two days, control 29, prior to incubation 114.7
Description: A model system is used to evaluate the ability of the phosphonates to inhibit the formation of crystals in inorganic solutions. Three solutions are prepared according to Fleisch.
The pH is brought to 7.4 by means of potassium hydroxide. The concentration of Ca^++ was 6.7 mg%, a level similar to the calcium in blood which has been subjected to untrafiltration and the concentration of the inorganic phosphate Pi give a product Ca^++ ×Pi=80. The solution was analyzed for Ca^++ and Pi and was distributed in Erlenmeyer flasks 12 cc each. The flasks were divided in groups as follows:
and then they are incubated under stirring at 37° C. for two days.
At the end of incubation, the solutions are passed through "millipore filters" for the purpose of retaining the ctystals which are formed during the incubation; the filtrate then is analyzed for Ca^++ and Pi. The results are also reported in Table 2 as the product of Ca^++ x Pi in the solution at the end of the experiment.

[5] = test system: bone reabsorption (metaphyseal bone density); assay: Metaphyseal bone density / inhibition of bone reabsorption in rats treated for 7 days; type: in vivo; details: 7 days, rats
[6] = test system: bone reabsorption and mineralization (tibia, trabecular metaphysis); type: in vivo, Wistar rats
Description: Groups of five Wistar rats of weight 180-200 grams are treated for a period of seven days with 0.1, 1.0 and 10 mg of P/kg of the following biphosphonic acids:
The animals kept as a control were administered the solvent with NaCl. All the treatments were carried out by the subcutaneous route. […] The animals were fed with Altromine 1314 containing 1.1 g/100 g P and 250 IU/100 g of vitamin D3. On the eighth day, the animals were killed and the tibia was removed and fixed in 50% ethanol. The tibiae were then dehydrated in increasing concentration of ethanol and allowed to soak in methylmethacrylate after the addition of Plastoid N. Frontal sections were removed and cut to a thickness of 70-80 μm and then the sections were submitted to microradiography. This procedure permitted to evaluate the density of the mineral in the trabecular metaphysis according to the method of Shenk et al., Calc. Tiss. Res. 11, 196-214, 1973).
One animal per group has been evaluated.

With `O=P(O)(O)C(Cl)(Cl)P(=O)(O)O` [Cl2 MBP, dichloromethanebiphosphonic acid] the “effect on the number of cells, in words” value [1] was “causes a decrease in the number of cells”, the activity at 2.5 µM ([1]; 2.5 μM) was 103 ± 0.7% and the activity at 25 µM ([1]; 25 μM) was 86.4 ± 2.1%. For the same molecule, the activity at 250 µM ([1]; 250 μM) was 54.5 ± 1.9%, the “effect on the production of lactate, in words” value [2] was “diminishes it” and the activity at 2.5 µM ([2]; 2.5 μM) was 87.5 ± 4%. For the same molecule, the activity at 25 µM ([2]; 25 μM) was 67.1 ± 2.8%, the activity at 250 µM ([2]; 250 μM) was 16.9 ± 2.2% and the LD50 ([3]; ip) was 750 mg/kg. For the same molecule, the LD50 ([3]; iv) was 130 mg/kg, the LD50 ([3]; po, os) was over 2000 mg/kg and the “product Ca++ × Pi in solution after incubation” value (“product Ca++ × Pi in solution” for short) ([4]; 0.5 μM) was 44.0. For the same molecule, the “product Ca++ × Pi in solution” value ([4]; 2.5 μM) was 60.4, the “product Ca++ × Pi in solution” value ([4]; 5.0 μM) was 73.6 and the metaphysical density ([5]; 0.1 mg P/kg s.c., s.c. NaCl controls 29.72) was 38.21 % volume of calcified tissue. For the same molecule, the metaphysical density ([5]; 1.0 mg P/kg s.c., s.c. NaCl controls 29.72) was 47.00 % volume of calcified tissue, the metaphysical density ([5]; 2.0 mg P/kg p.o., p.o. NaCl controls 28.45) was 31.20 % volume of calcified tissue and the metaphysical density ([5]; 10.0 mg P/kg s.c., s.c. NaCl controls 29.72) was 52.65 % volume of calcified tissue.
With `O=P(O)(O)C(F)(F)P(=O)(O)O` [F2 MBP, difluoromethanebiphosphonic acid] the “effect on the number of cells, in words” value [1] was “no effect or a very small effect”, the activity at 2.5 µM [1] was 88.1 ± 1.4% and the activity at 25 µM [1] was 92.4 ± 1.9%. For the same molecule, the activity at 250 µM [1] was 99.3 ± 2%, the “effect on the production of lactate, in words” value [2] was “no effect” and the activity at 2.5 µM [2] was 112 ± 4.4%. For the same molecule, the activity at 25 µM [2] was 106 ± 3.9%, the activity at 250 µM [2] was 99.7 ± 4.7% and the LD50 ([3]; ip) was 450 mg/kg. For the same molecule, the LD50 ([3]; iv) was 70 mg/kg, the LD50 ([3]; po, os) was over 2000 mg/kg and the “effect on mineralization, in words” value ([6]; 10 mg of P/kg / high dosage where stated) was “no effect on the bone reabsorption or on the bone mineralization”. For the same molecule, the “effect on bone reabsorption, in words” value ([6]; rat, in vivo) was “no effect on the bone reabsorption”, the “product Ca++ × Pi in solution” value ([4]; 0.5 μM) was 44.6 and the “product Ca++ × Pi in solution” value ([4]; 2.5 μM) was 58.5. For the same molecule, the “product Ca++ × Pi in solution” value ([4]; 5.0 μM) was 72.0 and the “inhibitory activity on the formation and growth of crystals of apatite” value ([4]; in vitro) was “inhibits the growth in vitro of the crystals of apatite”.
